The text below walks through data of US4355025A, “Biologically active amides” (Burroughs Wellcome Co., priority 1975, dated 1982).

This assay deals with mice of the NZO strain (genetically obese, hyperglycaemic and hyperinsulinaemic). Kind of assay: APP given intraperitoneally to NZO mice: blood glucose, serum insulin, weight, oral Glucose Tolerance Test. It counts as in vivo. Conditions: mean of APP-treated group, 1 μg i.p. 3 times a day; for Serum Insulin: Beef equivalent. From the text:
It has now unexpectedly been found by the Applicants that these vertebrate pancreatic polypeptides (hereinafter collectively referred to as VPPs, which term should be understood to include such polypeptides of avian, amphibian, piscian, reptilian or mammalian origin) are as a class effective in lowering the concentration in the blood of both glucose and insulin when administered to a strain (NZO) of genetically obese, hyperglycaemic and hyperinsulinaemic mice. At the same time these treated mice lose weight as compared with untreated control animals and give normalized values in the oral Glucose Tolerance Test standard in the art.
APP (Endocrinology 83, 1323 (1968)) (1 μg) in water (0.1 ml) was administered by intraperitoneal injection 3 times a day for 25 days to each of 5 male mice (age 6 weeks, weight 23 g) of the NZO strain (genetically obese, hyperglycaemic and hyperinsulinaemic). 5 Matched control animals each received plain water (0.1 ml) by the same route and according to the same schedule. The blood glucose and serum insulin levels were measured at the start and during the course of the experiment and the mean results for the APP-treated group are shown in Table 1. No change in these levels from the values on day 0, which were the same as in the treated group, occurred in the control group over the course of the experiment.

On to avian pancreatic polypeptide [APP], for which the “Serum Insulin” value was 189 μU/ml (Day 0 (start)), 99 μU/ml (Day 10) and 47 μU/ml (Day 20). Moreover, the Blood glucose by setting is: (Day 0 (start), 5 male NZO mice) 175 mg. %; (Day 5) 162 mg. %; (Day 15) 154 mg. %; (Day 25) 136 mg. %.
